In US20250066344A1 (BRISTOL-MYERS SQUIBB COMPANY, priority 2021, published 2025):

Target: T1, human RXFP1 (Homo sapiens, UniProt Q9HBX9)
T1 construct: expressed in transfected cells
T1 sequence (Q9HBX9 1-757): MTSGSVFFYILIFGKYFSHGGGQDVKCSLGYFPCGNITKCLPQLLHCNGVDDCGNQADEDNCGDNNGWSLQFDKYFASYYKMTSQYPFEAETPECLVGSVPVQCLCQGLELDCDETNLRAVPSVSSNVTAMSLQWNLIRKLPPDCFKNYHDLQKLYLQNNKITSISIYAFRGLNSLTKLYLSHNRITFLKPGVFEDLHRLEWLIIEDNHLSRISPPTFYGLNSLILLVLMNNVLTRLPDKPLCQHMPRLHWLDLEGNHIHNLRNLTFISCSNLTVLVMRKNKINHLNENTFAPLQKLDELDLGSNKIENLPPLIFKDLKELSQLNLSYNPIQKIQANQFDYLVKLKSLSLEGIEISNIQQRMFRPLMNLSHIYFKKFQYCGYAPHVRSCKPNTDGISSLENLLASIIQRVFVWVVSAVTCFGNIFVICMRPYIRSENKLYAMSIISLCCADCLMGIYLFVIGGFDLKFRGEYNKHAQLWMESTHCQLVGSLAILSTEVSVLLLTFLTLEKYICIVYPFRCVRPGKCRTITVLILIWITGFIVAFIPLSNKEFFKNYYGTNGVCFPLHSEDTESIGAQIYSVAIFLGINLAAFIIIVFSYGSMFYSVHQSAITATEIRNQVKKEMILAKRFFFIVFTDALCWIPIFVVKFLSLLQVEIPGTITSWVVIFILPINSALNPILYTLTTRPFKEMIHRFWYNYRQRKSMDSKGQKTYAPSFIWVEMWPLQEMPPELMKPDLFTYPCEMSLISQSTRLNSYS
Experiment: RXFP1 cyclic adenosine monophosphate (cAMP) assay, hRXFP1 HEK293
Assay type: cell-based
Settings: HEK293 cells stably expressing human RXFP1; 30 min at room temperature; HTRF cAMP
Protocol: RXFP1 Cyclic Adenosine Monophosphate (cAMP) Assays. Human embryonic kidney cells 293 (HEK293) cells and HEK293 cells stably expressing human RXFP1, were cultured in MEM medium supplemented with 10% qualified FBS, and 300 μg/ml hygromycin (Life Technologies). Cells were dissociated and suspended in assay buffer. The assay buffer was HBSS buffer (with calcium and magnesium) containing 20 mM HEPES, 0.05% BSA, and 0.5 mM IBMX. Cells (3000 cells per well, except 1500 cell per well for HEK293 cells stably expressing human RXFP1) were added to 384-well Proxiplates (Perkin-Elmer). Cells were immediately treated with test compounds in DMSO (2% final) at final concentrations in the range of 0.010 nM to 50 μM. Cells were incubated for 30 min at room temperature. The level of intracellular cAMP was determined using the HTRF HiRange cAMP assay reagent kit (Cisbio) according to manufacturer's instructions. Solutions of cryptate conjugated anti-cAMP and d2 fluorophore-labelled cAMP were made in a supplied lysis buffer separately. Upon completion of the reaction, the cells were lysed with equal volume of the d2-cAMP solution and anti-cAMP solution. After a 1 h room temperature incubation, time-resolved fluorescence intensity was measured using the Envision (Perkin-Elmer) at 400 nm excitation and dual emission at 590 nm and 665 nm. A calibration curve was constructed with an external cAMP standard at concentrations ranging from 2.7 μM to 0.1 μM by plotting the fluorescent intensity ratio from 665 nm emission to the intensity from the 590 nm emission against cAMP concentrations. The potency and activity of a compound to […] cAMP production was then determined by fitting to a 4-parametric logistic equation from a plot of cAMP level versus compound concentrations.
The examples disclosed below were tested in the human RXFP1 (hRXFP) HEK293 cAMP assay described above and found to have agonist activity. Tables 1-3, lists EC50 values in the hRXFP1 HEK293 cAMP assay measured for the examples.
Table A lists EC50 values in the hRXFP1 HEK293 cAMP assay measured for the examples.

Row | EC50 [µM] | Structure (SMILES)
1 | 0.015 | COc1ccc(-c2cc(C(NC(=O)C3CCOCC3)C(=O)O)ccc2F)cc1C(=O)Nc1cc2sc(C)nc2cc1C(=O)Nc1ccc(F)c(C(F)(F)F)c1 (single isomer, unassigned) [Example 30, 2-(6-fluoro-3′-((5-((4-fluoro-3-(trifluoromethyl)phenyl)carbamoyl)-2-methylbenzo[d]thiazol-6-yl)carbamoyl)-4′-methoxy-[1,1′-biphenyl]-3-yl)-2-(tetrahydro-2H-pyran-4-carboxamido)acetic acid]
2 | 0.666 | COc1ccc(C2CC3(C2)CN(C(=O)C(C)(C)O)C3)cc1C(=O)Nc1cc2c(cc1C(=O)Nc1ccc(F)c(C(F)(F)F)c1)OC(F)(F)O2 [Example 97, 2,2-difluoro-N-(4-fluoro-3-(trifluoromethyl)phenyl)-6-(5-(2-(2-hydroxy-2-methylpropanoyl)-2-azaspiro[3.3]heptan-6-yl)-2-methoxybenzamido) benzo[d][1,3]dioxole-5-carboxamide]
3 | 0.173 | COc1ccc(C2=NOC3(CCN(C(=O)CO)CC3)C2)cc1C(=O)Nc1cc2c(cc1C(=O)Nc1ccc(F)c(C(F)(F)F)c1)OC(F)(F)O2 [Example 68, 2,2-difluoro-N-(4-fluoro-3-(trifluoromethyl)phenyl)-6-(5-(8-(2-hydroxyacetyl)-1-oxa-2,8-diazaspiro[4.5]dec-2-en-3-yl)-2-methoxybenzamido) benzo[d][1,3]dioxole-5-carboxamide]
4 | 0.0039 | COc1ccc(C2=NOC3CC(CO)CC23)cc1C(=O)Nc1cc2c(cc1C(=O)Nc1ccc(F)c(C(F)(F)F)c1)OC(F)(F)O2 (stereo not drawn) [Example 99, 2,2-difluoro-N-(4-fluoro-3-(trifluoromethyl)phenyl)-6-(5-(5-(hydroxymethyl)-3a,5,6,6a-tetrahydro-4H-cyclopenta[d]isoxazol-3-yl)-2-methoxybenzamido) benzo[d][1,3]dioxole-5-carboxamide]
5 | 0.016 | COc1ccc(C2=NOC3CN(C(=O)CO)CC23)cc1C(=O)Nc1cc2c(cc1C(=O)Nc1ccc(F)c(C(F)(F)F)c1)OC(F)(F)O2 (stereo not drawn) [Example 44, 2,2-difluoro-N-(4-fluoro-3-(trifluoromethyl)phenyl)-6-(5-(5-(2-hydroxyacetyl)-3a,5,6,6a-tetrahydro-4H-pyrrolo[3,4-d]isoxazol-3-yl)-2-methoxybenzamido)benzo[d][1,3]dioxole-5-carboxamide]
6 | 0.562 | COc1ccc(C(=O)N(C)CCS(C)(=O)=O)cc1C(=O)Nc1cc2c(cc1C(=O)Nc1ccc(F)c(C(F)(F)F)c1)OC(F)(F)O2 [Example 41]
7 | 0.016 | COc1ccc(C2=NOC3CN(C(=O)CO)CC23)cc1C(=O)Nc1cc2nc(C)sc2cc1C(=O)Nc1ccc(F)c(C(F)(F)F)c1 (stereo not drawn) [Example 5, N-(4-fluoro-3-(trifluorometh-yl)phenyl)-5-(5-(5-(2-hy-droxyacetyl)-3a,5,6,6a-tetra-hydro-4H-pyr-rolo[3,4-d]isoxazol-3-yl)-2-methoxy-benzamido)-2-methylbenzo [d]thiazole-6-carboxamide]
8 | 0.322 | COc1ccc(C2CCN(C(=O)C(C)(C)O)C2)cc1C(=O)Nc1cc2c(cc1C(=O)Nc1ccc(F)c(C(F)(F)F)c1)OC(F)(F)O2 (single isomer, unassigned) [Example 55, 2,2-difluoro-N-(4-fluoro-3-(trifluoromethyl)phenyl)-6-(5-(1-(2-hydroxy-2-methylpropanoyl)pyrrolidin-3-yl)-2-methoxybenzamido) benzo[d][1,3]dioxole-5-carboxamide]
9 | 0.258 | COc1ccc(C2=NOC(C(C)(C)O)C2)cc1C(=O)Nc1cc2c(cc1C(=O)Nc1ccc(F)c(C(F)(F)F)c1)OC(F)(F)O2 (single isomer, unassigned) [Example 76, 2,2-difluoro-N-(4-fluoro-3-(trifluoromethyl)phenyl)-6-(5-(5-(2-hydroxypropan-2-yl)-4,5-dihydroisoxazol-3-yl)-2-methoxybenzamido) benzo[d][1,3]dioxole-5-carboxamide]
10 | 0.065 | COc1ccc(C2=NOC(CO)C2)cc1C(=O)Nc1cc2c(cc1C(=O)Nc1ccc(F)c(C(F)(F)F)c1)OC(F)(F)O2 (single isomer, unassigned) [Example 72, 2,2-difluoro-N-(4-fluoro-3-(trifluoromethyl)phenyl)-6-(5-(5-(hydroxymethyl)-4,5-dihydroisoxazol-3-yl)-2-methoxybenzamido) benzo[d][1,3]dioxole-5-carboxamide]
11 | 0.54 | COc1ccc(N2CC(CO)CC2=O)cc1C(=O)Nc1cc2nc(C)sc2cc1C(=O)Nc1ccc(F)c(C(F)(F)F)c1 (stereo not drawn) [Example 13, N-(4-fluoro-3-(trifluorometh-yl)phenyl)-5-(5-(4-(hy-droxymethyl)-2-oxopyrroli-din-1-yl)-2-methoxybenz-amido)-2-methylbenzo [d]thiazole-6-carboxamide]
12 | 0.021 | COc1ccc(C2=NOC3CC(NC(=O)CO)CC23)cc1C(=O)Nc1cc2c(cc1C(=O)Nc1ccc(F)c(C(F)(F)F)c1)OC(F)(F)O2 (stereo not drawn) [Example 51, 2,2-difluoro-N-(4-fluoro-3-(trifluoromethyl)phenyl)-6-(5-(5-(2-hydroxyacetamido)-3a,5,6,6a-tetrahydro-4H-cyclopenta[d]isoxazol-3-yl)-2-methoxybenzamido)benzo[d][1,3]dioxole-5-carboxamide]
13 | 0.683 | COc1ccc(C2CCNC2)cc1C(=O)Nc1cc2c(cc1C(=O)Nc1ccc(F)c(C(F)(F)F)c1)OC(F)(F)O2 (single isomer, unassigned) [Example 54, 2,2-difluoro-N-(4-fluoro-3-(trifluoromethyl)phenyl)-6-(2-methoxy-5-(pyrrolidin-3-yl)benzamido)benzo[d] [1,3]dioxole-5-carboxamide]
14 | 0.017 | COc1ccc(C2=NOC3CS(=O)(=O)CC23)cc1C(=O)Nc1cc2c(cc1C(=O)Nc1ccc(F)c(C(F)(F)F)c1)OC(F)(F)O2 (single isomer, unassigned) [Example 61, 6-(5-(5,5-dioxido-3a,4,6,6a-tetrahydrothieno[3,4-d]isoxazol-3-yl)-2-methoxybenzamido)-2,2-difluoro-N-(4-fluoro-3-(trifluoromethyl)phenyl) benzo[d][1,3]dioxole-5-carboxamide]
15 | 0.09 | COc1ccc(C(=O)N2CC(C)(O)C2)cc1C(=O)Nc1cc2c(cc1C(=O)Nc1ccc(F)c(C(F)(F)F)c1)OC(F)(F)O2 [Example 39, 2,2-difluoro-N-(4-fluoro-3-(trifluoromethyl)phenyl)-6-(5-(3-hydroxy-3-methylazetidine-1-carbonyl)-2-methoxybenzamido) benzo[d][1,3]dioxole-5-carboxamide]
16 | 0.262 | COc1ccc(C2=NOC3(COC(=O)C3)C2)cc1C(=O)Nc1cc2c(cc1C(=O)Nc1ccc(F)c(C(F)(F)F)c1)OC(F)(F)O2 (stereo not drawn) [Example 78, 2,2-difluoro-N-(4-fluoro-3-(trifluoromethyl)phenyl)-6-(2-methoxy-5-(8-oxo-1,7-dioxa-2-azaspiro[4.4]non-2-en-3-yl)benzamido)benzo[d] [1,3]dioxole-5-carboxamide]
17 | 1 | COc1ccc(C2=NOC3COCC23)cc1C(=O)Nc1cc2nc(C)sc2cc1C(=O)Nc1ccc(F)c(C(F)(F)F)c1 (single isomer, unassigned) [Example 2, N-(4-fluoro-3-(trifluoromethyl)phenyl)-5-(2-methoxy-5-(3a,4,6,6a-tetrahydrofuro[3,4-d]isoxazol-3-yl)benzamido)-2-methylbenzo[d]thiazole-6-carboxamide]
18 | 0.028 | COc1ccc(C2=NOC3CS(=O)(=O)CC23)cc1C(=O)Nc1cc2nc(C)sc2cc1C(=O)Nc1ccc(F)c(C(F)(F)F)c1 (stereo not drawn) [Example 6, 5-(5-(5,5-diox-ido-3a,4,6,6a-tetrahydro-thieno[3,4-d]isoxazol-3-yl)-2-methoxy-benzamido)-N-(4-fluoro-3-(trifluorometh-yl)phenyl)-2-methylbenzo [d]thiazole-6-carboxamide]
